Assay results as given in BindingDB's records for doi:10.1021/jm00060a002 (Merck Reserch Laboratories, 1993).

Target: T1, Gag-Pol polyprotein [588-1027]/[588-1147] (Human immunodeficiency virus 1, UniProt P04585)
T1 construct: 588-1027; 588-1147
Assay: Tested for inhibition against HIV-1 RT (used (poly)rC-(oligo)dG as the template)

SMILES	IC50
CCc1cc(CCc2nc3ccccc3o2)c(N)nc1C [3-[2-(1,3-benzoxazol-2-yl)ethyl]-5-ethyl-6-methylpyridin-2-amine]	100 µM
CCc1cc(CCc2nc3c(o2)CCCC3)c(=O)[nH]c1C [5-ethyl-6-methyl-3-[2-(4,5,6,7-tetrahydro-1,3-benzoxazol-2-yl)ethyl]-1,2-dihydropyridin-2-one]	0.058 µM
